{"source": "patent US7335671B2", "about": "“Arylcycloalkyl-substituted alkanoic acid derivatives, processes for their preparation and their use as pharmaceuticals” (Sanofi-Aventis Deutschland GmbH, priority 2003, dated 2008)", "data": [{"target": "T1, PPARalpha (Homo sapiens, UniProt Q07869)", "T1 construct": "human PPARalpha receptor (amino acids S167-Y468); expressed in transfected cells; host or cells: HEK (human embryo kidney) cells, stably transfected; pcDNA3 vector, CMV promoter", "T1 sequence (Q07869 167-468)": "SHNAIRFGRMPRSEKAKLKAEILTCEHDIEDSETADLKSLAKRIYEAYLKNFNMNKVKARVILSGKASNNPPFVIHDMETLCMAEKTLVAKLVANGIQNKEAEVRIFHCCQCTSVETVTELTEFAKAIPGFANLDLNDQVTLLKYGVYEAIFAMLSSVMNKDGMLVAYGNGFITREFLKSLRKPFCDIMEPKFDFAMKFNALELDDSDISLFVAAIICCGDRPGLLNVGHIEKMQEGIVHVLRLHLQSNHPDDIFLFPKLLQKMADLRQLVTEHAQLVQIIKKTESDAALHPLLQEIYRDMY", "experiment": "Cellular PPARalpha assay (stably transfected HEK luciferase reporter cell line)", "assay_type": "cell-based", "conditions": "GR-GAL4-humanPPARalpha-LBD", "procedure": "Determination of EC50 Values of PPAR agonists in the Cellular PPARalpha Assay\nThe potency of substances which bind to human PPARA and activate in an agonistic manner is analyzed using a stably transfected HEK cell line (HEK =human embryo kidney) which is referred to here as PPARalpha reporter cell line. It contains two genetic elements, a luciferase reporter element (pδM-GAL4-Luc-Zeo) and a PPARalpha fusion protein (GR-GAL4-humanPPARα-LBD) which mediates expression of the luciferase reporter element depending on a PPARalpha ligand. The stably and constitutively expressed fusion protein GR-GAL4-humanPPARalpha-LBD binds in the cell nucleus of the PPARalpha reporter cell line via the GAL4 protein portion to the GAL4 DNA binding motifs 5′-upstream of the luciferase reporter element which is integrated in the genome of the cell line. There is only little expression of the luciferase reporter gene without addition of a PPARalpha ligand if fatty acid-depleted fetal calf serum (cs-FCS) is used in the assay. PPARα ligands bind and activate the PPARα fusion protein and thereby bring about expression of the luciferase reporter gene. The luciferase which is formed can be detected by means of chemiluminescence via an appropriate substrate.\nThe PPARalpha reporter cell line was prepared in 2 stages. Firstly, the luciferase reporter element was constructed and stably transfected into HEK cells. For this purpose, five binding sites of the yeast transcription factor GAL4 (each 5′-CGGAGTACTGTCCTCCGAG-3′) (SEQ ID No. 1) were cloned in 5′-upstream of a 68 bp-long minimal MMTV promoter (Genbank Accession # V01 175). The minimal MMTV promoter section contains a CCAAT box and a TATA element in order to enable efficient transcription by RNA polymerase 11. The cloning and sequencing of the GAL4-MMTV construct took place in analogy to the description of Sambrook J. et. al. (Molecular cloning, Cold Spring Harbor Laboratory Press, 1989). Then the complete Photinus pyralis gene (Genbank Accession # M15077) was cloned in 3′-downstream of the GAL4-MMTV element. After sequencing, the luceriferase reporter element consisting of five GAL4 binding sites, MMTV promoter and luciferase gene was recloned into a plasmid which confers zeocin resistance in order to obtain the plasmid pδM-GAL4-Luc-Zeo. This vector was transfected into HEK cells in accordance with the statements in Ausubel, F. M. et al. (Current protocols in molecular biology, Vol. 1-3, John Wiley & Sons, Inc., 1995).\nIn a second step, the PPARalpha fusion protein (GR-GAL4-humanPPARalpha-LBD was introduced into the stable cell clone described. For this purpose, initially the cDNA coding for the N-terminal 76 amino acids of the glucocorticoid receptor (Genbank Accession # P04150) was linked to the cDNA section coding for amino acids 1-147 of the yeast transcription factor GAL4 (Genbank Accession # P04386). The cDNA of the ligand-binding domain of the human PPARalpha receptor (amino acids S167-Y468; Genbank Accession # S74349) was cloned in at the 3′-end of this GR-GAL4 construct. The fusion construct prepared in this way (GR-GAL4-humanPPARalpha-LBD) was recloned into the plasmid pcDNA3 (from Invitrogen) in order to enable constitutive expression therein by the cytomegalovirus promoter. This plasmid was linearized with a restriction endonuclease and stably transfected into the previously described cell clone containing the luciferase reporter element. The finished PPARalpha reporter cell line which contains a luciferase reporter element and constitutively expresses the PPARalpha fusion protein (GR-GAL4-human PPARalpha-LBD) was isolated by selection with zeocin (0.5 mg/ml) and G418 (0.5 mg/ml).\nThe activity of PPARalpha agonists is determined in a 3-day assay which is described below: […]", "units": {"EC50": "µM"}, "values": [{"smiles": "Cc1ccc(-c2nc(CO[C@H]3CCC[C@@H](OC[C@@H](OCc4ccc(C(F)(F)F)cc4)C(=O)O)C3)c(C)o2)cc1", "note": "[Example 81, (R)-3-[(1R,3S)-3-(5-Methyl-2-(4-methylphenyl)oxazol-4-ylmethoxy)cyclohexyloxy]-2-(4-trifluoromethylbenzyloxy)propionic acid]", "EC50": 0.0006}, {"smiles": "CCOC(CO[C@@H]1CCC[C@H](OCc2nc(-c3ccc(OC(F)(F)F)cc3)oc2C)C1)C(=O)O", "note": "(stereo partly drawn) [Example 60, 2-Ethoxy-3-{(1R,3S)-3-[5-methyl-2-(4-trifluoromethoxyphenyl)oxazol-4-ylmethoxy]-cyclohexyloxy}propionic acid]", "EC50": 0.026}, {"smiles": "CCCOC(CO[C@@H]1CCC[C@H](OCc2nc(-c3cccc(C(F)(F)F)c3)oc2C)C1)C(=O)O", "note": "(stereo partly drawn) [Example 52, 3-{(1R,3S)-3-[5-Methyl-2-(3-trifluoromethylphenyl)oxazol-4-ylmethoxy]cyclohexyl-oxy}-2-propoxypropionic acid]", "EC50": 0.022}, {"smiles": "C#CCOC(CO[C@@H]1CCC[C@H](OCc2nc(-c3cccc(C)c3)oc2C)C1)C(=O)O", "note": "(stereo partly drawn) [Example 22, 3-[(1R,3S)-3-(5-Methyl-2-m-tolyloxazol-4-ylmethoxy)cyclohexyloxy]-2-(2-propynyl-oxy)propionic acid]", "EC50": 0.043}, {"smiles": "COC(CO[C@@H]1CCC[C@H](OCc2nc(-c3ccc(C)cc3C)oc2C)C1)C(=O)O", "note": "(stereo partly drawn) [Example 36, 2-Methoxy-3-{(1R,3S)-3-[5-methyl-2-(2,4-dimethylphenyl)oxazol-4-ylmethoxy]-cyclohexyloxy}propionic acid]", "EC50": 0.014}, {"smiles": "Cc1cccc(-c2nc(CO[C@H]3CCC[C@@H](OCC(OC/C=C/c4ccccc4)C(=O)O)C3)c(C)o2)c1", "note": "(stereo partly drawn) [Example 25, 3-[(1R,3S)-3-(5-Methyl-2-m-tolyloxazol-4-ylmethoxy)cyclohexyloxy]-2-(3-phenyl-2-propenyloxy)propionic acid]", "EC50": 0.0062}, {"smiles": "COC(CO[C@@H]1CCC[C@H](OCc2nc(-c3ccc4ccccc4c3)oc2C)C1)C(=O)O", "note": "(stereo partly drawn) [Example 35, 2-Methoxy-3-{(1R,3S)-3-[5-methyl-2-(3-naphthyl)oxazol-4-ylmethoxy]cyclohexyl-oxy}propionic acid]", "EC50": 0.084}, {"smiles": "Cc1cccc(-c2nc(CO[C@H]3CCC[C@@H](OCC(Cc4cccc(C(F)(F)F)c4)C(=O)O)C3)c(C)o2)c1", "note": "(stereo partly drawn) [Example 91, 2-[(1R,3S)-3-(5-Methyl-2-m-tolyloxazol4-ylmethoxy)cyclohexyloxymethyl]-3-(3-trifluoromethylphenyl)propionic acid]", "EC50": 0.078}, {"smiles": "CCCOC(CO[C@@H]1CCC[C@H](OCc2nc(-c3ccc(C)cc3)oc2C)C1)C(=O)O", "note": "(stereo partly drawn) [Example 47, 3-{(1R,3S)-3-[5-Methyl-2-(4-methylphenyl)oxazol-4-ylmethoxy]cyclohexyloxy}-2-propoxypropionic acid]", "EC50": 0.0008}, {"smiles": "Cc1cccc(-c2nc(CO[C@H]3CCC[C@@H](OCC(OCc4ccc(C(C)(C)C)cc4)C(=O)O)C3)c(C)o2)c1", "note": "(stereo partly drawn) [Example 18, 3-[(1R,3S)-3-(5-Methyl-2-m-tolyloxazol-4-ylmethoxy)cyclohexyloxy]-2-(4-tert-butylbenzyloxy)propanoic acid]", "EC50": 0.0015}, {"smiles": "CCC(CCO[C@@H]1CCC[C@H](OCc2nc(-c3ccc(F)cc3)oc2C)C1)C(=O)O", "note": "(stereo partly drawn) [Example 1, 2-Ethyl-4{(1R,3S)-3-[2-(4-fluorophenyl)-5-methyloxazol-4-ylmethoxy]-cyclohexyloxy}butanoic acid]", "EC50": 0.041}, {"smiles": "Cc1cccc(-c2nc(CO[C@H]3CCC[C@@H](OCC4(C(=O)O)CC4)C3)c(C)o2)c1", "note": "[Example 5, (1R,3S)-1-[3-(5-methyl-2-m-tolyloxazol-4-ylmethoxy)cyclohexyloxymethyl]cyclo-propanecarboxylic acid]", "EC50": 0.069}, {"smiles": "COCC(CO[C@@H]1CCC[C@H](OCc2nc(-c3cccc(C)c3)oc2C)C1)C(=O)O", "note": "(stereo partly shown) [Example 8, (1R′,3S′)-2R/S-Methoxymethyl-3-[3-(5-methyl-2-m-tolyloxazol-4-ylmethoxy)cyclo-hexyloxy]propionic acid]", "EC50": 0.024}]}]}
